The source made the active and inactive calls. The rule behind the calls is not given here.
Columns and labels:
[1] = test system: Human immunodeficiency virus 1; assay: Antiviral activity against HIV1 NL4-3 infected in human PBMC assessed as inhibition of viral p24 antigen production after 7 to 10 days by ELISA; type: functional, organism-based; details: Human immunodeficiency virus 1, NL4-3
[2] = test system: Human immunodeficiency virus 1; assay: Antiviral activity against HIV1 X4 infected in human PBMC assessed as inhibition of viral p24 antigen production after 7 to 10 days by ELISA; type: functional, organism-based; details: Human immunodeficiency virus 1, X4
[3] = test system: Human immunodeficiency virus 1; assay: Antiviral activity against HIV1 JRCSF infected in human PBMC assessed as inhibition of viral p24 antigen production after 7 to 10 days by ELISA; type: functional; details: Human immunodeficiency virus 1, JRCSF ISOLATE
[4] = test system: Human immunodeficiency virus 1; assay: Antiviral activity against HIV1 A018H infected in human PBMC assessed as inhibition of viral p24 antigen production after 7 to 10 days by ELISA; type: functional, organism-based; details: Human immunodeficiency virus 1, A018H
[5] = test system: Human immunodeficiency virus 1; assay: Antiviral activity against HIV1 NL4-3 infected in HEK293 cells assessed as inhibition of viral replication after 2 days; type: functional, organism-based; details: Human immunodeficiency virus 1, NL4-3, HEK293, 48 h
[6] = test system: Human immunodeficiency virus 1; assay: Antiviral activity against HIV1 HXB2 infected in HEK293 cells assessed as inhibition of viral replication after 2 days; type: functional, organism-based; details: Human immunodeficiency virus 1, HXB2, HEK293, 48 h
[7] = test system: Human immunodeficiency virus 1; assay: Antiviral activity against NRTI-resistant HIV1 HXB2 infected in HEK293 cells assessed as inhibition of viral replication after 2 days; type: functional, organism-based; details: Human immunodeficiency virus 1, HXB2, HEK293, 48 h
[8] = test system: Human immunodeficiency virus 1; assay: Antiviral activity against NNRTI-resistant HIV1 HXB2 infected in HEK293 cells assessed as inhibition of viral replication after 2 days; type: functional, organism-based; details: Human immunodeficiency virus 1, HXB2, HEK293, 48 h
[9] = molecular target: T1, C-X-C chemokine receptor type 4 (Homo sapiens, UniProt P61073); assay: Displacement of [125I]SDF-1alpha form CXCR4 expressed in human MOLT4 cells by scintillation counting; type: cell-based; details: MOLT-4
[10] = test system: Human immunodeficiency virus 1; assay: Antiviral activity against multidrug resistant HIV1 HXB2 infected in HEK293 cells assessed as inhibition of viral replication after 2 days; type: functional, organism-based; details: Human immunodeficiency virus 1, HXB2, HEK293, 48 h
[11] = test system: Human immunodeficiency virus 1; assay: Antiviral activity against T20-resistant HIV1 NL4-3 infected in HEK293 cells assessed as inhibition of viral replication after 2 days; type: functional, organism-based; details: Human immunodeficiency virus 1, NL4-3, HEK293, 48 h
[12] = molecular target: C-C chemokine receptor type 1 (Homo sapiens) (UniProt P32246); assay: Displacement of [125I]RANTES form CCR1 expressed in CHO cells by scintillation counting; type: cell-based
[13] = molecular target: C-C chemokine receptor type 2 (Homo sapiens) (UniProt P41597); assay: Displacement of [125I]MCP1 form CCR2b expressed in CHO cells by scintillation counting; type: cell-based
[14] = molecular target: C-C chemokine receptor type 5 (Homo sapiens) (UniProt P51681); assay: Displacement of [125I]RANTES form CCR5 expressed in CHO cells by scintillation counting; type: cell-based
[15] = molecular target: C-X-C chemokine receptor type 1 (Homo sapiens) (UniProt P25024); assay: Displacement of [125I]IL8 form CXCR1 expressed in CHO cells by scintillation counting; type: cell-based
[16] = molecular target: T1, C-X-C chemokine receptor type 4; assay: Antagonist activity at CXCR4 expressed in CHO cells assessed as inhibition of SDF1-alpha-induced calcium mobilization by fluorescence assay; type: functional, cell-based
[17] = molecular target: T1, C-X-C chemokine receptor type 4; assay: Inhibition of Mab 12G5 binding to CXCR4 expressed in human MOLT4 cells by FACS analysis; type: cell-based; details: MOLT-4
[18] = molecular target: T1, C-X-C chemokine receptor type 4; assay: Inhibition of Mab 44717 binding to CXCR4 expressed in human MOLT4 cells by FACS analysis; type: cell-based; details: MOLT-4
[19] = Oral bioavailability in Sprague-Dawley rat at 10 mg/kg administered as single dose; type: ADME, organism-based; details: in vivo
[20] = Half life in Sprague-Dawley rat at 10 mg/kg, iv administered as single dose; type: ADME, organism-based; design: dose 10 mg/kg, route intravenous; details: in vivo
[21] = Clearance in Sprague-Dawley rat at 10 mg/kg, iv administered as single dose; type: ADME, organism-based; design: dose 10 mg/kg, route intravenous; details: in vivo
[22] = Cmax in Sprague-Dawley rat at 10 mg/kg, po administered as single dose; type: ADME, organism-based; design: dose 10 mg/kg, route oral; details: in vivo
[23] = test system: Human immunodeficiency virus 1; assay: Antiviral activity against HIV1 NL4-3 infected in SCID mouse assessed as viral p24 antigen level in spleen at 10 mg/kg, po administered as single dose after 7 days; type: functional
[24] = molecular target: T1, C-X-C chemokine receptor type 4; assay: Inhibition of Mab 12G5 binding to wild type CXCR4 expressed in HEK293 cells; type: cell-based
[25] = test system: C-X-C chemokine receptor type 4 (Homo sapiens), P61073 [V99A]; assay: (§1) Inhibition of Mab 12G5 binding to CXCR4 V99A mutant expressed in HEK293 cells; type: cell-based
[26] = molecular target: C-X-C chemokine receptor type 4 (Homo sapiens, UniProt P61073, V99A); assay: as §1; type: cell-based
[27] = test system: C-X-C chemokine receptor type 4 (Homo sapiens), P61073 [V112A]; assay: (§2) Inhibition of Mab 12G5 binding to CXCR4 V112A mutant expressed in HEK293 cells; type: cell-based
[28] = molecular target: C-X-C chemokine receptor type 4 (Homo sapiens, UniProt P61073, V112A); assay: as §2; type: cell-based
[29] = test system: C-X-C chemokine receptor type 4 (Homo sapiens), P61073 [V280A]; assay: (§3) Inhibition of Mab 12G5 binding to CXCR4 V280A mutant expressed in HEK293 cells; type: cell-based
[30] = molecular target: C-X-C chemokine receptor type 4 (Homo sapiens, UniProt P61073, V280A); assay: as §3; type: cell-based
[31] = test system: C-X-C chemokine receptor type 4 (Homo sapiens), P61073 [H281A]; assay: (§4) Inhibition of Mab 12G5 binding to CXCR4 H281A mutant expressed in HEK293 cells; type: cell-based
[32] = molecular target: C-X-C chemokine receptor type 4 (Homo sapiens, UniProt P61073, H281A); assay: as §4; type: cell-based
[33] = test system: C-X-C chemokine receptor type 4 (Homo sapiens), P61073 [I284A]; assay: (§5) Inhibition of Mab 12G5 binding to CXCR4 I284A mutant expressed in HEK293 cells; type: cell-based
[34] = molecular target: C-X-C chemokine receptor type 4 (Homo sapiens, UniProt P61073, I284A); assay: as §5; type: cell-based
[35] = molecular target: C-X-C chemokine receptor type 4 (Homo sapiens, UniProt P61073, D171A)
[36] = molecular target: C-X-C chemokine receptor type 4 (Homo sapiens, UniProt P61073, W283A)
[37] = test system: C-X-C chemokine receptor type 4 (Homo sapiens), P61073 [D171A]; details: HEK293
[38] = test system: C-X-C chemokine receptor type 4 (Homo sapiens), P61073 [D262A]; details: HEK293
[39] = test system: C-X-C chemokine receptor type 4 (Homo sapiens), P61073 [E277A]; details: HEK293
C-X-C chemokine receptor type 4 (Homo sapiens), P61073 [E277A], sequence (P61073 whole entry E277A): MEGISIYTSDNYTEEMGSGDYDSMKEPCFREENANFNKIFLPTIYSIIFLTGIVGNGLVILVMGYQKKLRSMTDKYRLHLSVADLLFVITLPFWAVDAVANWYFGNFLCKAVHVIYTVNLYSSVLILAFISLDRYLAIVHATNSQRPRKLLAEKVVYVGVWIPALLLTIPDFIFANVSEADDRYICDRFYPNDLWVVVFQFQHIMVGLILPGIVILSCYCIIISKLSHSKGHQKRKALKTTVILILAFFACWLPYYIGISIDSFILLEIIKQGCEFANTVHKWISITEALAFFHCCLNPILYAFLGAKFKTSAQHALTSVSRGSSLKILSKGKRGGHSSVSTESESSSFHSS

T1 sequence (P61073 whole entry): as the sequence (P61073 whole entry E277A) above, with A277E counted along it
C-C chemokine receptor type 2 (Homo sapiens), sequence (P41597 whole entry, looked up): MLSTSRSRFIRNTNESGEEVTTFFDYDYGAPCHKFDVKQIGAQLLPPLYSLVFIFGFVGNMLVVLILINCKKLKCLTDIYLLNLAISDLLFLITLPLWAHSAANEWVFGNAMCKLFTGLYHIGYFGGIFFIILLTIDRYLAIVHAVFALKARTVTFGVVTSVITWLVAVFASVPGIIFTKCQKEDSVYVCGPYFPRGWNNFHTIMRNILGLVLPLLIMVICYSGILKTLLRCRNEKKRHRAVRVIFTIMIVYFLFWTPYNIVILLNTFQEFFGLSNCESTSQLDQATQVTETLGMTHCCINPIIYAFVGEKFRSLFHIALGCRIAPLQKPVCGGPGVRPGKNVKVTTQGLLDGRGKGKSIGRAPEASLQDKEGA
C-C chemokine receptor type 5 (Homo sapiens), sequence (P51681 whole entry, looked up): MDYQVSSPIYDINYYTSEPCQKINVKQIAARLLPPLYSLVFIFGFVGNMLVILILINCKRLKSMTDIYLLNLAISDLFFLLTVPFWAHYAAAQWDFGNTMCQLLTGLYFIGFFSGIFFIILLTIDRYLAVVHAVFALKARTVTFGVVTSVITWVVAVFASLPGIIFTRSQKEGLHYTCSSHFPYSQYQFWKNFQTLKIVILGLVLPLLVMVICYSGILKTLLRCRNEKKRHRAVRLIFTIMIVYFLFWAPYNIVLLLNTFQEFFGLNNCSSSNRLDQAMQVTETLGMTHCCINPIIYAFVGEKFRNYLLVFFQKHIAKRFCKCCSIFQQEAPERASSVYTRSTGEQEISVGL
C-X-C chemokine receptor type 4 (Homo sapiens, UniProt P61073, W283A), sequence (P61073 whole entry W283A): as the sequence (P61073 whole entry E277A) above, with A277E, W283A counted along it
C-X-C chemokine receptor type 4 (Homo sapiens), P61073 [V99A], sequence (P61073 whole entry V99A): as the sequence (P61073 whole entry E277A) above, with V99A, A277E counted along it
C-X-C chemokine receptor type 4 (Homo sapiens, UniProt P61073, V99A), sequence (P61073 whole entry V99A): as the sequence (P61073 whole entry E277A) above, with V99A, A277E counted along it
C-X-C chemokine receptor type 4 (Homo sapiens), P61073 [V280A], sequence (P61073 whole entry V280A): as the sequence (P61073 whole entry E277A) above, with A277E, V280A counted along it
C-X-C chemokine receptor type 4 (Homo sapiens, UniProt P61073, V280A), sequence (P61073 whole entry V280A): as the sequence (P61073 whole entry E277A) above, with A277E, V280A counted along it
C-X-C chemokine receptor type 4 (Homo sapiens), P61073 [D171A], sequence (P61073 whole entry D171A): as the sequence (P61073 whole entry E277A) above, with D171A, A277E counted along it
C-X-C chemokine receptor type 4 (Homo sapiens, UniProt P61073, D171A), sequence (P61073 whole entry D171A): as the sequence (P61073 whole entry E277A) above, with D171A, A277E counted along it
C-X-C chemokine receptor type 4 (Homo sapiens, UniProt P61073, V112A), sequence (P61073 whole entry V112A): as the sequence (P61073 whole entry E277A) above, with V112A, A277E counted along it
C-X-C chemokine receptor type 4 (Homo sapiens), P61073 [V112A], sequence (P61073 whole entry V112A): as the sequence (P61073 whole entry E277A) above, with V112A, A277E counted along it
C-X-C chemokine receptor type 4 (Homo sapiens), P61073 [I284A], sequence (P61073 whole entry I284A): as the sequence (P61073 whole entry E277A) above, with A277E, I284A counted along it
C-X-C chemokine receptor type 4 (Homo sapiens, UniProt P61073, I284A), sequence (P61073 whole entry I284A): as the sequence (P61073 whole entry E277A) above, with A277E, I284A counted along it
C-X-C chemokine receptor type 1 (Homo sapiens), sequence (P25024 whole entry): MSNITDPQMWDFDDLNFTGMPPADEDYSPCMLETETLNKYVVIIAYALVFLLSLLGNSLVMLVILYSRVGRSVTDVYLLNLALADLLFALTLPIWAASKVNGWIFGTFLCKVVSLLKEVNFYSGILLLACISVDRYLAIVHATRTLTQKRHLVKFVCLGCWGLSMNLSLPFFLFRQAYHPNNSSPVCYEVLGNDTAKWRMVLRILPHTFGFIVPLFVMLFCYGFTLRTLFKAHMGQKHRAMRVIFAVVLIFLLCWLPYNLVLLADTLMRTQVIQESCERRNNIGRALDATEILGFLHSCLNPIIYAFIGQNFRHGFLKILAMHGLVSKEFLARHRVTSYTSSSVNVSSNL
C-X-C chemokine receptor type 4 (Homo sapiens), P61073 [D262A], sequence (P61073 whole entry D262A): as the sequence (P61073 whole entry E277A) above, with D262A, A277E counted along it
C-X-C chemokine receptor type 4 (Homo sapiens, UniProt P61073, H281A), sequence (P61073 whole entry H281A): as the sequence (P61073 whole entry E277A) above, with A277E, H281A counted along it
C-X-C chemokine receptor type 4 (Homo sapiens), P61073 [H281A], sequence (P61073 whole entry H281A): as the sequence (P61073 whole entry E277A) above, with A277E, H281A counted along it
C-C chemokine receptor type 1 (Homo sapiens), sequence (P32246 whole entry): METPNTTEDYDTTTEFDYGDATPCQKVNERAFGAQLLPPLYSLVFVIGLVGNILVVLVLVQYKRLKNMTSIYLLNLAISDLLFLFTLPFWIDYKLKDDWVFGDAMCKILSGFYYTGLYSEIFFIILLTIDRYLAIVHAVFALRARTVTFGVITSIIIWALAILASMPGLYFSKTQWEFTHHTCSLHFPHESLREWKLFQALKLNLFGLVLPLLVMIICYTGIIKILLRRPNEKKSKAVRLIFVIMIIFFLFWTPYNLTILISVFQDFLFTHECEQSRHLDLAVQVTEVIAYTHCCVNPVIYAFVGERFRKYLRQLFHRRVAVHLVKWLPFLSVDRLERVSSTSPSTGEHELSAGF

CCCN(CCC)CCCCN(C)Cc1ccc(CN(Cc2ncc[nH]2)Cc2nccn2C)cc1.O=C(O)C(O)C(O)C(=O)O
EC50 [1]: 1.1 nM
EC50 [2]: 0.33 nM
EC50 [3]: > 200 nM
EC50 [4]: 1.4 nM
IC50 [5]: 0.5 nM
IC50 [6]: 0.6 nM
IC50 [7]: 0.6 nM
IC50 [8]: 0.8 nM
Activity [9]: Active
IC50 [10]: 0.7 nM
IC50 [11]: 0.4 nM
Activity [12]: inactive
Activity [13]: inactive
Activity [14]: inactive
Activity [15]: inactive
inhibition [16]: Dose-dependent effect
inhibition [17]: Dose-dependent effect
inhibition [18]: Dose-dependent effect
bioavailability [19]: 25.6%
half-life [20]: 99 h
clearance [21]: 65 mL/min/kg
Cmax [22]: 86.3 ng/mL
Activity [23]: <5 pg/mL
IC50 [24]: 2.8 nM
IC90 [24]: 8.2 nM
IC90 [25]: 7.4 nM
IC50 [26]: 1.5 nM
IC90 [27]: > 10 nM
IC50 [28]: 2.2 nM
IC90 [29]: 6.1 nM
IC50 [30]: 1 nM
IC90 [31]: 248 nM
IC50 [32]: 14.1 nM
IC90 [33]: 6.8 nM
IC50 [34]: 1.2 nM
IC50 [35]: 3.2 nM
IC50 [36]: 1.3 nM
IC90 [37]: > 10 nM
IC90 [38]: 8.1 nM
IC90 [39]: 8.7 nM
